Assay results: ChEMBL document CHEMBL1165863, “Lipophilicity of novel antitumour and analgesic active 8-aryl-2,6,7,8-tetrahydroimidazo[2,1-c][1,2,4]triazine-3,4-dione derivatives determined by reversed-phase HPLC and computational methods” (Eur J Med Chem, 2010)

Tests used:
[1] = Lipophilicity, Log p by HPLC; assay type: physicochemical
Mus musculus = experiment: (§1) Toxicity in ip dosed mouse; assay type: organism-based; conditions: in vivo
[2] = as §1; assay type: organism-based; conditions: in vivo

Row | SMILES | logP [1] | log(1/LD50) (Mus musculus) | LD50 [2] [mg/kg] | LD (Mus musculus) [mg/kg]
1 | O=c1[nH]nc2n(c1=O)CCN2c1ccc(Cl)c(Cl)c1 | 2.63 |  |  | 
2 | COc1ccc(N2CCn3c2n[nH]c(=O)c3=O)cc1 | 1.21 | -3.18 |  | 
3 | O=c1[nH]nc2n(c1=O)CCN2c1ccccc1 | 1.31 | -3.15 |  | 
4 | Cc1ccccc1N1CCn2c1n[nH]c(=O)c2=O | 1.16 |  |  | 
5 | O=c1[nH]nc2n(c1=O)CCN2c1cccc(Cl)c1 | 2 | -3.3 | 2000 | 
6 | COc1ccccc1N1CCn2c1n[nH]c(=O)c2=O | 0.97 | -3.04 |  | 
7 | O=c1[nH]nc2n(c1=O)CCN2c1ccc(Cl)cc1 | 1.99 | -3.3 |  | 2000
8 | Cc1ccc(N2CCn3c2n[nH]c(=O)c3=O)cc1 | 1.84 | -3.25 |  | 
